Patent US7387997B2 (University of Utah, priority 2004, dated 2008)
Where a SMILES comes first, the peptide text is derived from it. Bridges are numbered along the chain shown (N, C = ends).

Legend:
[1] = biological target: Mouse CNS α-MII Site (putative α6β2* nAChRs); format: binding
Rat α3β2 nAChR = biological target: T1, Rat α3β2 nAChR (Rattus norvegicus, UniProt P04757+P12390); test: cell-based; format: cell-based
T1 construct: expressed in transfected cells; host or cells: Xenopus laevis oocytes, cRNA injected

Rat α6/α3β2β3 nAChR = biological target: T2, Rat α6/α3β2β3 nAChR (Rattus norvegicus, UniProt P04757+P12390+P43143); test: cell-based; format: cell-based
T2 construct: amino acids 1 to 237 of the rat α6 subunit protein; amino acids 233 to 499 of the rat α3 subunit protein; expressed in transfected cells; host or cells: Xenopus laevis oocytes, cRNA injected (pT7TS/rα6α3 for the chimera)

α4β2 nAChR = biological target: T3, α4β2 nAChR (Rattus norvegicus, UniProt P09483+P12390); format: cell-based
T3 construct: expressed in transfected cells; host or cells: Xenopus laevis oocytes, cRNA injected
T3 sequence (P09483 31-630 limits assumed): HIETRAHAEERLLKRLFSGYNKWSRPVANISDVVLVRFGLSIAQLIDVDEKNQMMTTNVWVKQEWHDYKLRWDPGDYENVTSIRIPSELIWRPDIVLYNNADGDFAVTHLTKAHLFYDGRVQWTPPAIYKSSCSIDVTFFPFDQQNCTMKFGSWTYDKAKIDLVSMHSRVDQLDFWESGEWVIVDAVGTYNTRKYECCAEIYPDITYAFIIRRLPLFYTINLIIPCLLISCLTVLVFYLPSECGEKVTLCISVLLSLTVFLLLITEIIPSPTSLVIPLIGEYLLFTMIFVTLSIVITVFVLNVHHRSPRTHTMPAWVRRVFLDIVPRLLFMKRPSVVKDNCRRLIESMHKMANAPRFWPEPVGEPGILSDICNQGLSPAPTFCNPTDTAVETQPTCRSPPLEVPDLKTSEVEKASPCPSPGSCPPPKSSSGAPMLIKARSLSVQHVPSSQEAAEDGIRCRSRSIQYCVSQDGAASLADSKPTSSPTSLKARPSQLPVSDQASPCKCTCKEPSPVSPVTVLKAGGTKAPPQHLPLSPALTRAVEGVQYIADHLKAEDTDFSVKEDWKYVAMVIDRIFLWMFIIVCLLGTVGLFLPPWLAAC
T3 sequence (P12390 25-500 limits assumed): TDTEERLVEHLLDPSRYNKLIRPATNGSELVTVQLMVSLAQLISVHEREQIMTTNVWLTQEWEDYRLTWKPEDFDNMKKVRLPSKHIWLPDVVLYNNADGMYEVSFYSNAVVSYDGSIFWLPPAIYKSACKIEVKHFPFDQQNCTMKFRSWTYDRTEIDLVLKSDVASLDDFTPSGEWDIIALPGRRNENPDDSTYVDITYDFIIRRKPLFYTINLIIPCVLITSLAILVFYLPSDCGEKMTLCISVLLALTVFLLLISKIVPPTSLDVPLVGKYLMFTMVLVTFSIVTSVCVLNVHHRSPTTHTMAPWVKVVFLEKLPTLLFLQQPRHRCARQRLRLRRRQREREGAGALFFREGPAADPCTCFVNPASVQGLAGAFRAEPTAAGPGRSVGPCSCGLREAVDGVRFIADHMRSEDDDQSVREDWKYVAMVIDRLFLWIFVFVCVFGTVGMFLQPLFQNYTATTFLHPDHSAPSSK

T2 sequence (P43143 31-237 limits assumed): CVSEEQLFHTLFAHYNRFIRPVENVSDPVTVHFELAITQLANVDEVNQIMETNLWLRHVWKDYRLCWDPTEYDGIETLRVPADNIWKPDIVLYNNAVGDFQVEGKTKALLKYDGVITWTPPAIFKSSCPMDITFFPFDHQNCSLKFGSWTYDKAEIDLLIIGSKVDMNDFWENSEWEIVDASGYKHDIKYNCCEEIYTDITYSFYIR
T2 sequence (P04757 233-499 limits assumed): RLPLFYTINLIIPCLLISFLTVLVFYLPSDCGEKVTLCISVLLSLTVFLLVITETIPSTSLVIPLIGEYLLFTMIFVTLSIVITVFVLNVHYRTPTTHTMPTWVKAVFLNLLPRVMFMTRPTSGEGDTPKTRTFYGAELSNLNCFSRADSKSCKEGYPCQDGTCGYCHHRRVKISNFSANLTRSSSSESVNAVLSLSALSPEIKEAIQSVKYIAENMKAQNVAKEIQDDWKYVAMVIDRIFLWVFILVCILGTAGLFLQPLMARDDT
T2 sequence (P12390 25-500 limits assumed): as the sequence (P12390 25-500 limits assumed) above
T1 sequence (P04757 26-499 limits assumed): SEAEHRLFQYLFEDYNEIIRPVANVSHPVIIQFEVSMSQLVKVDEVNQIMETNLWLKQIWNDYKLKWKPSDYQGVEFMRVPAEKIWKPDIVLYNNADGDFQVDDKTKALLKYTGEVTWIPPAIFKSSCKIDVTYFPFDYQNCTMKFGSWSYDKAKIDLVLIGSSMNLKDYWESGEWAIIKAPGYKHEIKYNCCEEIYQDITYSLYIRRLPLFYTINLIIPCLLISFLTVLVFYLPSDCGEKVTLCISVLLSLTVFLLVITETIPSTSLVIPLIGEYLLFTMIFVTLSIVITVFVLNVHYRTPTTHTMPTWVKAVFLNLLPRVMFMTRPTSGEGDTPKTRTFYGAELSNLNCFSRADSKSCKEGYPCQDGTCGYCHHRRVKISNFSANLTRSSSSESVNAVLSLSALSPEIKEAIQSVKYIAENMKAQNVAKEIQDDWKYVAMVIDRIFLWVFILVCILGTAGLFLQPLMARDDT
T1 sequence (P12390 25-500 limits assumed): as the sequence (P12390 25-500 limits assumed) above

CC(C)C[C@@H]1NC(=O)[C@H](CC(N)=O)NC(=O)[C@H](CO)NC(=O)[C@H](Cc2c[nH]cn2)NC(=O)[C@H](CCC(=O)O)NC(=O)[C@H](CC(C)C)NC(=O)[C@H](Cc2c[nH]cn2)NC(=O)[C@@H]2CSSC[C@H](NC(=O)CN)C(=O)N[C@@H](CSSC[C@@H](C(N)=O)NC1=O)C(=O)N[C@@H](CO)C(=O)N[C@@H](CC(N)=O)C(=O)N1CCC[C@H]1C(=O)N[C@@H](C(C)C)C(=O)N2 [MII, reference compound]
Ki [1]: 0.22 nM
Hill slope, α3β2 (Rat α3β2 nAChR): 0.75±0.13

CC(C)C[C@@H]1NC(=O)[C@H](Cc2c[nH]cn2)NC(=O)[C@@H]2CSSC[C@H](NC(=O)CN)C(=O)N[C@@H](CSSC[C@@H](C(N)=O)NC(=O)[C@H](C)NC(=O)[C@H](CC(N)=O)NC(=O)[C@H](CO)NC(=O)[C@H](Cc3c[nH]cn3)NC(=O)[C@H](C)NC1=O)C(=O)N[C@@H](CO)C(=O)N[C@@H](CC(N)=O)C(=O)N1CCC[C@H]1C(=O)N[C@@H](C(C)C)C(=O)N2 [MII[E11A; L15A]] (H-GCCSNPVCHLAHSNAC-NH2; disulfide 2-8, 3-16)
IC50 (Rat α6/α3β2β3 nAChR): 0.415 nM
IC50 (Rat α3β2 nAChR): 50.1 nM
Ratio IC50 α3β2/IC50 α6/α3β2β3 (Rat α3β2 nAChR): 121

CC(C)C[C@@H]1NC(=O)[C@H](C)NC(=O)[C@@H]2CSSC[C@H](NC(=O)CN)C(=O)N[C@@H](CSSC[C@@H](C(N)=O)NC(=O)[C@H](CC(C)C)NC(=O)[C@H](CC(N)=O)NC(=O)[C@H](CO)NC(=O)[C@H](Cc3c[nH]cn3)NC(=O)[C@H](CCC(=O)O)NC1=O)C(=O)N[C@@H](CO)C(=O)N[C@@H](CC(N)=O)C(=O)N1CCC[C@H]1C(=O)N[C@@H](C(C)C)C(=O)N2 [MII[H9A]] (H-GCCSNPVCALEHSNLC-NH2; disulfide 2-8, 3-16)
ACh response, percentage of control, Rα4β2 (α4β2 nAChR): 105.8±2.4 % of control
Ki [1]: 1.1 nM
Hill slope, α6/α3β2β3 (Rat α6/α3β2β3 nAChR): 0.73±0.08
IC50 (Rat α6/α3β2β3 nAChR): 0.79 nM
Hill slope, α3β2 (Rat α3β2 nAChR): 0.83±0.08
IC50 (Rat α3β2 nAChR): 59 nM
Ratio IC50 α3β2/IC50 α6/α3β2β3 (Rat α3β2 nAChR): 74.7

CC(C)C[C@@H]1NC(=O)[C@H](CC(N)=O)NC(=O)[C@H](CO)NC(=O)[C@H](C)NC(=O)[C@H](CCC(=O)O)NC(=O)[C@H](CC(C)C)NC(=O)[C@H](Cc2c[nH]cn2)NC(=O)[C@@H]2CSSC[C@H](NC(=O)CN)C(=O)N[C@@H](CSSC[C@@H](C(N)=O)NC1=O)C(=O)N[C@@H](CO)C(=O)N[C@@H](CC(N)=O)C(=O)N1CCC[C@H]1C(=O)N[C@@H](C(C)C)C(=O)N2 [MII[H12A]] (H-GCCSNPVCHLEASNLC-NH2; disulfide 2-8, 3-16)
IC50 (Rat α6/α3β2β3 nAChR): 604 nM
IC50 (Rat α3β2 nAChR): 4660 nM
Ratio IC50 α3β2/IC50 α6/α3β2β3 (Rat α3β2 nAChR): 7.72

CC(C)[C@@H]1NC(=O)[C@@H]2CCCN2C(=O)[C@H](CC(N)=O)NC(=O)[C@H](CO)NC(=O)[C@@H]2CSSC[C@@H](C(N)=O)NC(=O)[C@H](C)NC(=O)[C@H](CC(N)=O)NC(=O)[C@H](CO)NC(=O)[C@H](Cc3c[nH]cn3)NC(=O)[C@H](CCC(=O)O)NC(=O)[C@H](C)NC(=O)[C@H](Cc3c[nH]cn3)NC(=O)[C@H](CSSC[C@H](NC(=O)CN)C(=O)N2)NC1=O [MII[L10A; L15A]] (H-GCCSNPVCHAEHSNAC-NH2; disulfide 2-8, 3-16)
IC50 (Rat α6/α3β2β3 nAChR): 1.8 nM
IC50 (Rat α3β2 nAChR): 17.2 nM
Ratio IC50 α3β2/IC50 α6/α3β2β3 (Rat α3β2 nAChR): 9.56

CC(C)C[C@@H]1NC(=O)[C@H](CC(N)=O)NC(=O)[C@H](CO)NC(=O)[C@H](Cc2c[nH]cn2)NC(=O)[C@H](CCC(=O)O)NC(=O)[C@H](C)NC(=O)[C@H](Cc2c[nH]cn2)NC(=O)[C@@H]2CSSC[C@H](NC(=O)CN)C(=O)N[C@@H](CSSC[C@@H](C(N)=O)NC1=O)C(=O)N[C@@H](CO)C(=O)N[C@@H](CC(N)=O)C(=O)N1CCC[C@H]1C(=O)N[C@@H](C(C)C)C(=O)N2 [MII[L10A]] (H-GCCSNPVCHAEHSNLC-NH2; disulfide 2-8, 3-16)
IC50 (Rat α6/α3β2β3 nAChR): 0.482 nM
IC50 (Rat α3β2 nAChR): 1.47 nM
Ratio IC50 α3β2/IC50 α6/α3β2β3 (Rat α3β2 nAChR): 3.05

CC(C)C[C@@H]1NC(=O)[C@H](Cc2c[nH]cn2)NC(=O)[C@@H]2CSSC[C@H](NC(=O)CN)C(=O)N[C@@H](CSSC[C@@H](C(N)=O)NC(=O)[C@H](C)NC(=O)[C@H](CC(N)=O)NC(=O)[C@H](CO)NC(=O)[C@H](Cc3c[nH]cn3)NC(=O)[C@H](CCC(=O)O)NC1=O)C(=O)N[C@@H](CO)C(=O)N[C@@H](CC(N)=O)C(=O)N1CCC[C@H]1C(=O)N[C@@H](C(C)C)C(=O)N2 [MII[L15A]] (H-GCCSNPVCHLEHSNAC-NH2; disulfide 2-8, 3-16)
ACh response, percentage of control, Rα4β2 (α4β2 nAChR): 102.3±5.3 % of control
Ki [1]: 0.3 nM
Hill slope, α6/α3β2β3 (Rat α6/α3β2β3 nAChR): 0.75±0.08
IC50 (Rat α6/α3β2β3 nAChR): 0.917 nM
Hill slope, α3β2 (Rat α3β2 nAChR): 0.58±0.08
IC50 (Rat α3β2 nAChR): 34.1 nM
Ratio IC50 α3β2/IC50 α6/α3β2β3 (Rat α3β2 nAChR): 37.2

CC(C)C[C@@H]1NC(=O)[C@H](CC(N)=O)NC(=O)[C@H](CO)NC(=O)[C@H](Cc2c[nH]cn2)NC(=O)[C@H](CCC(=O)O)NC(=O)[C@H](CC(C)C)NC(=O)[C@H](Cc2c[nH]cn2)NC(=O)[C@@H]2CSSC[C@H](NC(=O)CN)C(=O)N[C@@H](CSSC[C@@H](C(N)=O)NC1=O)C(=O)N[C@@H](CO)C(=O)N[C@@H](C)C(=O)N1CCC[C@H]1C(=O)N[C@@H](C(C)C)C(=O)N2 [MII[N5A]] (H-GCCSAPVCHLEHSNLC-NH2; disulfide 2-8, 3-16)
IC50 (Rat α6/α3β2β3 nAChR): 793 nM
IC50 (Rat α3β2 nAChR): > 10000 nM
Ratio IC50 α3β2/IC50 α6/α3β2β3 (Rat α3β2 nAChR): >12.6

CC(C)C[C@@H]1NC(=O)[C@H](C)NC(=O)[C@H](CO)NC(=O)[C@H](Cc2c[nH]cn2)NC(=O)[C@H](CCC(=O)O)NC(=O)[C@H](CC(C)C)NC(=O)[C@H](Cc2c[nH]cn2)NC(=O)[C@@H]2CSSC[C@H](NC(=O)CN)C(=O)N[C@@H](CSSC[C@@H](C(N)=O)NC1=O)C(=O)N[C@@H](CO)C(=O)N[C@@H](CC(N)=O)C(=O)N1CCC[C@H]1C(=O)N[C@@H](C(C)C)C(=O)N2 [MII[N14A]] (H-GCCSNPVCHLEHSALC-NH2; disulfide 2-8, 3-16)
IC50 (Rat α6/α3β2β3 nAChR): 1.06 nM
IC50 (Rat α3β2 nAChR): 25.7 nM
Ratio IC50 α3β2/IC50 α6/α3β2β3 (Rat α3β2 nAChR): 24.2

CC(C)C[C@@H]1NC(=O)[C@H](CC(N)=O)NC(=O)[C@H](CO)NC(=O)[C@H](Cc2c[nH]cn2)NC(=O)[C@H](CCC(=O)O)NC(=O)[C@H](CC(C)C)NC(=O)[C@H](Cc2c[nH]cn2)NC(=O)[C@@H]2CSSC[C@H](NC(=O)CN)C(=O)N[C@@H](CSSC[C@@H](C(N)=O)NC1=O)C(=O)N[C@@H](CO)C(=O)N[C@@H](CC(N)=O)C(=O)N[C@@H](C)C(=O)N[C@@H](C(C)C)C(=O)N2 [MII[P6A]] (H-GCCSNAVCHLEHSNLC-NH2; disulfide 2-8, 3-16)
IC50 (Rat α6/α3β2β3 nAChR): 253 nM
IC50 (Rat α3β2 nAChR): 4420 nM
Ratio IC50 α3β2/IC50 α6/α3β2β3 (Rat α3β2 nAChR): 17.5

CC(C)C[C@@H]1NC(=O)[C@H](C)NC(=O)[C@@H]2CSSC[C@H](NC(=O)CN)C(=O)N[C@@H](CSSC[C@@H](C(N)=O)NC(=O)[C@H](CC(C)C)NC(=O)[C@H](CC(N)=O)NC(=O)[C@H](CO)NC(=O)[C@H](Cc3c[nH]cn3)NC(=O)[C@H](CCC(=O)O)NC1=O)C(=O)N[C@@H](C)C(=O)N[C@@H](CC(N)=O)C(=O)N1CCC[C@H]1C(=O)N[C@@H](C(C)C)C(=O)N2 [MII[S4A; H9A]] (H-GCCANPVCALEHSNLC-NH2; disulfide 2-8, 3-16)
IC50 (Rat α6/α3β2β3 nAChR): 1.97 nM
IC50 (Rat α3β2 nAChR): 207 nM
Ratio IC50 α3β2/IC50 α6/α3β2β3 (Rat α3β2 nAChR): 105

CC(C)C[C@@H]1NC(=O)[C@H](CC(N)=O)NC(=O)[C@H](CO)NC(=O)[C@H](Cc2c[nH]cn2)NC(=O)[C@H](CCC(=O)O)NC(=O)[C@H](CC(C)C)NC(=O)[C@H](Cc2c[nH]cn2)NC(=O)[C@@H]2CSSC[C@H](NC(=O)CN)C(=O)N[C@@H](CSSC[C@@H](C(N)=O)NC1=O)C(=O)N[C@@H](C)C(=O)N[C@@H](CC(N)=O)C(=O)N1CCC[C@H]1C(=O)N[C@@H](C(C)C)C(=O)N2 [MII[S4A]] (H-GCCANPVCHLEHSNLC-NH2; disulfide 2-8, 3-16)
IC50 (Rat α6/α3β2β3 nAChR): 0.733 nM
IC50 (Rat α3β2 nAChR): 15.8 nM
Ratio IC50 α3β2/IC50 α6/α3β2β3 (Rat α3β2 nAChR): 21.56

CC(C)C[C@@H]1NC(=O)[C@H](CC(N)=O)NC(=O)[C@H](C)NC(=O)[C@H](Cc2c[nH]cn2)NC(=O)[C@H](CCC(=O)O)NC(=O)[C@H](CC(C)C)NC(=O)[C@H](Cc2c[nH]cn2)NC(=O)[C@@H]2CSSC[C@H](NC(=O)CN)C(=O)N[C@@H](CSSC[C@@H](C(N)=O)NC1=O)C(=O)N[C@@H](CO)C(=O)N[C@@H](CC(N)=O)C(=O)N1CCC[C@H]1C(=O)N[C@@H](C(C)C)C(=O)N2 [MII[S13A]] (H-GCCSNPVCHLEHANLC-NH2; disulfide 2-8, 3-16)
IC50 (Rat α6/α3β2β3 nAChR): 0.659 nM
IC50 (Rat α3β2 nAChR): 2.54 nM
Ratio IC50 α3β2/IC50 α6/α3β2β3 (Rat α3β2 nAChR): 3.85

CC(C)C[C@@H]1NC(=O)[C@H](CC(N)=O)NC(=O)[C@H](CO)NC(=O)[C@H](Cc2c[nH]cn2)NC(=O)[C@H](CCC(=O)O)NC(=O)[C@H](CC(C)C)NC(=O)[C@H](Cc2c[nH]cn2)NC(=O)[C@@H]2CSSC[C@H](NC(=O)CN)C(=O)N[C@@H](CSSC[C@@H](C(N)=O)NC1=O)C(=O)N[C@@H](CO)C(=O)N[C@@H](CC(N)=O)C(=O)N1CCC[C@H]1C(=O)N[C@@H](C)C(=O)N2 [MII[V7A]] (H-GCCSNPACHLEHSNLC-NH2; disulfide 2-8, 3-16)
IC50 (Rat α6/α3β2β3 nAChR): 10.6 nM
IC50 (Rat α3β2 nAChR): 4.46 nM
Ratio IC50 α3β2/IC50 α6/α3β2β3 (Rat α3β2 nAChR): 0.421
